# Test: Human HepG2 cell viability assay in 384 well format
# Type: toxicity, cell-based
# Parameters: dose 125 nL, time 70.5 hour; cytotoxicity at 70.5 h: concentration not given beside the values
# Conditions: HepG2 cells, read-out: Inhibition
row,SMILES,cytotoxicity at 70.5 h [%]
1,Cc1nnc(N(CCC#N)CCC#N)s1,-5.52
2,CCOc1c(Br)cc(C2C3=C(COC3=O)Nc3[nH]nc(C)c32)cc1OC (centres undefined),29.2
3,Cc1ccc(CN2CCC3(CCCN(C(=O)N(C)C)C3)C2)cc1 (centres undefined),-6.47
4,CN(C)C(=O)N1CCCC2(CCN(Cc3ccncc3)C2)C1 (centres undefined),-7.12
5,CC(C)N1CCO[C@H]2CN(S(=O)(=O)c3ccc(C#N)cc3)C[C@H]21,-11.6
6,CC1=N[C@@]2(CC[C@@H]3CN(CC(C)C)C[C@@H]32)C(=O)N1,-4.43
7,CN(C)C(=O)c1nc2c(s1)CCCN2Cc1ccccc1,-7.89
8,CC(=O)N1CCCC2(CCN(Cc3ccc(Cl)c(C(F)(F)F)c3)C2)C1 (centres undefined),-5.69
9,CC(C)NC(=O)c1nc2c(s1)CCCN2Cc1ccccc1,-6.15
10,O=S(=O)(C1CC1)N1CCOC2(CCCN(c3cccc(F)c3)C2)C1 (centres undefined),-3.57
11,CN(C)C(=O)CN1CCO[C@H]2CN(c3ccccn3)C[C@H]21,-3.6
12,CCS(=O)(=O)N1CCC2(CCCN(c3ncc(F)cn3)C2)C1 (centres undefined),-6.13
13,O=C(Cc1ccccn1)N1CCC2(CC1)CN(c1ccccn1)CCO2,-6.92
14,CCS(=O)(=O)N1CCC2(CN(C(=O)c3cscn3)C2)C1,-3.48
15,Cc1ccc(C(=O)N2C[C@@H]3CN(c4ncccn4)C[C@@H]3C2)cc1,-4.94
16,COCCC(=O)N1CC2(CCN(c3ccccc3)C2)C1,3.88
17,Cc1cccc(N2CCCC3(C2)CN(S(C)(=O)=O)CCO3)c1 (centres undefined),-4.48
18,COCCN1C(=O)CC[C@@H]2[C@H]1CCN2C(=O)C1CCOCC1,-7.67
19,Cc1cccc(Cl)c1NC(=O)Cn1cc(C(=O)O)ccc1=O,-2.75
20,O=C(Cn1cc(C(=O)O)ccc1=O)NCc1ccc(F)cc1Cl,5.89
21,O=C(Cn1cc(C(=O)O)ccc1=O)Nc1cc(F)ccc1F,-9.56
22,COc1cccc(C2C3=C(COC3=O)Nc3[nH]nc(C)c32)c1OC (centres undefined),-3.26
23,CCN(CC)c1ccc(C2C3=C(COC3=O)Nc3[nH]nc(C)c32)cc1 (centres undefined),-4.13

row,SMILES,cytotoxicity at 70.5 h [%]
1,O=C1CC(c2ccc(F)cc2)Cc2[nH]c(=O)c(C(=O)O)cc21 (centres undefined),-8.55
2,O=C1N(c2ccc(Cl)cc2)Cc2nc(=O)[nH]n21,-11.3
3,O=C1N(c2cccc(F)c2)Cc2nc(=O)[nH]n21,-7.69
4,COc1cccc(C2SCC(=O)Nc3ccsc32)c1 (centres undefined),0.777
5,O=C1CC(c2ccc(C(=O)O)cc2)c2ncn(-c3ccc(Cl)cc3)c2N1 (centres undefined),-13
6,O=C1CC(c2ccc(C(=O)O)cc2)c2ncn(-c3ccccc3Cl)c2N1 (centres undefined),-12.6
7,COc1cccc(N2Cc3nc(=O)[nH]n3C2=O)c1,-16.5
8,CC1CCc2nc(O)c(C(=O)NCc3ccncc3)cc2C1 (centres undefined),5.88
9,CC1CCc2nc(O)c(C(=O)NCc3ccccc3F)cc2C1 (centres undefined),7.1
10,COc1ccc(CNC(=O)c2cc3c(nc2O)CCC(C)C3)cc1 (centres undefined),-8.97
11,COC(=O)c1ccc(C2SCC(=O)Nc3ccsc32)cc1 (centres undefined),-8.05
12,O=C1CSC(c2ccc(O)cc2)c2sccc2N1 (centres undefined),3
13,O=C1CC(c2cccs2)Cc2nc(O)c(C(=O)N3CCCC3)cc21 (centres undefined),-4.55
14,CCOc1ccc(-n2ccc3nc(N4CCCC4)ncc3c2=O)cc1,-2.37
15,O=c1c2cnc(N3CCCCC3)nc2ccn1-c1ccccc1F,8.21
16,Cc1ccccc1-n1ccc2nc(N3CCCC3)ncc2c1=O,-13.6
17,Cc1c(C)n(CC(O)CN2CCCCCC2)c2c(Cl)cccc12 (centres undefined),20.5
18,CN1N=C(C(=O)N2CCCCC2)S(=O)(=O)c2ccccc21,1.74
19,CSc1nc2cc(C)n(CC(N)=O)c2c(=O)n1CC(C)C,0.849
20,O=c1[nH]c2nc(NCC3CCCO3)ncc2c(=O)n1-c1ccc(F)cc1 (centres undefined),1.97
21,CCc1noc(-c2ccc(SCC(=O)O)nc2)n1,13.8
22,COc1ccc(NC(=O)c2cnc(N(C)C3CCCCC3)nc2N)cc1,2.82
23,COc1ccc(Cn2c(=O)n(C)c(=O)c3sccc32)cc1,3.39

row,SMILES,cytotoxicity at 70.5 h [%]
1,COCCc1noc(-c2ccc(=O)[nH]c2)n1,2.52
2,Cc1cccc(N2CCN(c3ccn4c(=O)[nH]nc4n3)CC2)c1C,3.43
3,COC(=O)c1sc2nc3c(c(C(F)(F)F)c2c1N)CN(C(C)=O)CC3,5.62
4,CSc1ccc(C2CC(=O)Nc3c2c(=O)[nH]c2ncnn32)cc1 (centres undefined),6.12
5,O=C(O)c1ccc2[nH]cc(CN3CCCC3)c2c1,6.43
6,COc1ccc(-c2cnc(NC(C)=O)[nH]2)cc1,10.1
7,CC(=O)c1sc2nc3c(c(C(F)(F)F)c2c1N)CN(C(C)=O)CC3,8.25
8,O=C1CC(C2CCCCC2)c2c(n(C3CCCC3)[nH]c2=O)N1 (centres undefined),2.99
9,CCOCCNS(=O)(=O)c1ccc2c3c1CCCN3C(=O)CO2,33.6
10,O=C1COc2ccc(S(=O)(=O)NCC3CCCO3)c3c2N1CCC3 (centres undefined),1.71
11,O=C1COc2ccc(S(=O)(=O)NCc3ccccc3)c3c2N1CCC3,4.09
12,Cc1cc(NCCO)nc(N2CCN(C)CC2)c1C#N,1.33
13,Cc1nc(C#N)c(N2CCC(c3nc(-c4ccc(F)cc4)no3)CC2)o1,28.5
14,CC(C)N1C(=O)CC(N2CCN(c3ccc(F)cc3)CC2)C1=O (centres undefined),6.65
15,CNC(=O)c1sccc1N(C)S(=O)(=O)c1ccc(Cl)cc1,19.5
16,CCNC(=O)c1sccc1N(C)S(=O)(=O)c1ccc(Cl)cc1,1.21
17,CN(C)CCNC(=O)c1sccc1N(C)S(=O)(=O)c1ccc(Cl)cc1,-17.4
18,O=C(c1cc(-n2cnnn2)ccc1Cl)N1CCN(c2ccccc2)CC1,-1.12
19,CC(C)n1ncc2c1NC(=O)CC2c1ccccc1Cl (centres undefined),-6.71
20,Cn1ncc2c1NC(=O)CC2c1c(Cl)cccc1Cl (centres undefined),-16.4
21,Cc1cccc(NC(=O)c2nn(C3CCS(=O)(=O)C3)c3c2CCCC3)n1 (centres undefined),-27.2
22,Cn1ncc2c1NC(=O)CC2c1c(F)cccc1Cl (centres undefined),-5.11
23,COc1cccc(C2SCC(=O)Nc3n[nH]cc32)c1OC(C)C (centres undefined),-20.4

row,SMILES,cytotoxicity at 70.5 h [%]
1,NC(=O)C1CCN(C(=O)c2cc(-n3cnnn3)ccc2Cl)CC1,-14.1
2,COC(=O)CNC(=O)c1c(-n2cnnn2)sc2c1CCCC2,-14.5
3,Oc1nc(N2CCCC2)nc2nccc(-c3ccccn3)c12,-22.4
4,CC(C)CCn1[nH]c(CNc2ccc(F)cc2)nc1=O,-10.3
5,Cn1ncc2c1NC(=O)CC2c1cc(Cl)ccc1F (centres undefined),47.5
6,Cn1ncc2c1NC(=O)CC2c1ccccc1Br (centres undefined),-12.4
7,CC(C)CCn1nc(CNc2ccc(Br)cc2)nc1O,-17.8
8,CNc1nc2c(s1)C(c1ccccc1F)CC(=O)N2 (centres undefined),9.16
9,Cc1cc(O)c(OCC(=O)Nc2nc3c(s2)CCCC3)cn1,-22.4
10,Cc1cc(NC(=O)c2nn(C3CCS(=O)(=O)C3)c3c2CCCC3)no1 (centres undefined),-24.1
11,CCc1c(C(=O)O)nnn1-c1cc(C)ccc1C,-2.96
12,CCOc1cc(=O)n2c(c1C(=O)OCc1cccc(C)c1)CCCC2,-11.3
13,CCn1nccc1CNC(=O)C1CC1,-10.1
14,Cc1nn(C)c2c(NCc3ccccc3F)nc(C3CC3)nc12,-5.5
15,Cc1nc(NCc2cccnc2)c2c(n1)c(C)nn2C,-11.5
16,Cc1ncc2c(n1)CCCC2NC(=O)c1ccncc1 (centres undefined),14.6
17,O=C1CCOC[C@]2(CN(Cc3ccccc3)C[C@H]2c2ccccc2F)N1,1.5
18,c1cnc(N2CCCC(c3csc(Nc4cnccn4)n3)C2)nc1 (centres undefined),19.8
19,CCCC(=O)N1CCC(Nc2nc(O)cc(-c3ccsc3)n2)CC1,-3.98
20,O=C(C1CC1)N1CCC(Nc2nc(O)cc(-c3ccsc3)n2)CC1,-8.33
21,CNC(=O)[C@@H]1CN(C(=O)COC)C[C@H]1c1ccnc(N2CCCC2)n1,-5.21
22,COCCC(=O)NCc1ccc(-c2ccccc2C(=O)O)nc1,-3.04
23,CC(C)C(=O)NC(Cc1cc(N(C)C)nc(C2CC2)n1)c1ccccc1 (centres undefined),3.43

row,SMILES,cytotoxicity at 70.5 h [%]
1,Cc1nc(CCC(N)=O)cc(C2CCCCN2S(C)(=O)=O)n1 (centres undefined),-1.31
2,c1cc(C2CCN(c3cnccn3)CC2)ccn1,17.3
3,Cc1nc(CN2CCCC2c2[nH]ncc2C(=O)N(C)C)cs1 (centres undefined),-2.79
4,CN(C)c1ccc(C2CCN(c3cnccn3)CC2)nc1,6.87
5,Cc1nc(C)c(CC(=O)N2CCC(c3ccn4nccc4n3)CC2)s1,-1.07
6,Cc1c(C)n(CC(O)CN2CCOCC2)c2c(Cl)cccc12 (centres undefined),11.2
7,Cc1c(C)n(CC(O)CN2CCN(CCO)CC2)c2c(Cl)cccc12 (centres undefined),10
8,CCNCc1ccc(OCc2ccc3c(c2)OCCO3)cc1,22.5
9,COCCN1CCCn2cnc(CNC3CCCC3)c2C1,0.0497
10,CN1CCO[C@H]2CN(S(=O)(=O)c3ccc(C#N)cc3)C[C@H]21,3.3
11,Cc1nc(NCc2ccco2)nc2c1COCC21CCNC1 (centres undefined),-8.24
12,COCC(=O)N1CCC2(CC1)CNc1ccc(F)cc12,-9.36
13,Cc1cnc(N2C[C@H]3CCN(CC4CC4)C[C@@H]3C2)nc1,7.8
14,Cc1cccc(N2CCCC3(C2)CN(S(=O)(=O)C2CC2)CCO3)c1 (centres undefined),-3.02
15,c1csc(CN2CCc3onc(Cn4cccc4)c3C2)c1,2.81
16,CC(=O)N1CCn2c(-c3cccc(F)c3)cnc2C12CCNCC2,-7.49
17,O=C(Cc1ccccn1)N1CCC2(CC1)CN(CC1CC1)C(=O)CO2,-5.52
18,CC(=O)N1[C@H](CN(C)C)C[C@@H]2CN(c3ncc(F)cn3)CC[C@@H]21,-6.27
19,CN(C)C(=O)NCc1ncn2c1CN(Cc1cccs1)CCC2,-3.13
20,CC(C)NC1CCc2c(ccc(=O)n2CCN2CCOCC2)C1 (centres undefined),-6.6
21,Cn1cc2c(n1)C(CNCC1CCOCC1)OCC2 (centres undefined),4.92
22,Cc1cnc(N2CC[C@H]3[C@H](C[C@@H](CN(C)C)N3C)C2)nc1,-6.09

# Source: ChEMBL document CHEMBL3507680, “University of Dundee, Gates Library screen for HepG2 cell viability”
